Measured values reported in article doi:10.1101/2023.12.04.569845, “Identification of 4-(6-((2-methoxyphenyl)amino)pyrazin-2-yl)benzoic acids as CSNK2A inhibitors with antiviral activity and improved selectivity over PIM3” (bioRxiv, 2023).
Where two headings read alike, the source gives them in different places. One block for each compound: values may come before it.

What was measured:
Experiment in all cases: biochemical
Design in all cases: Thermal shift (DSF, SYPRO Orange) Tm shift of recombinant kinase domains at 10 uM compound
DCAMKL1 = target: T1, DCAMKL1 (Homo sapiens, UniProt O15075)
T1 construct: gene DCLK1
T1 sequence (O15075 1-740): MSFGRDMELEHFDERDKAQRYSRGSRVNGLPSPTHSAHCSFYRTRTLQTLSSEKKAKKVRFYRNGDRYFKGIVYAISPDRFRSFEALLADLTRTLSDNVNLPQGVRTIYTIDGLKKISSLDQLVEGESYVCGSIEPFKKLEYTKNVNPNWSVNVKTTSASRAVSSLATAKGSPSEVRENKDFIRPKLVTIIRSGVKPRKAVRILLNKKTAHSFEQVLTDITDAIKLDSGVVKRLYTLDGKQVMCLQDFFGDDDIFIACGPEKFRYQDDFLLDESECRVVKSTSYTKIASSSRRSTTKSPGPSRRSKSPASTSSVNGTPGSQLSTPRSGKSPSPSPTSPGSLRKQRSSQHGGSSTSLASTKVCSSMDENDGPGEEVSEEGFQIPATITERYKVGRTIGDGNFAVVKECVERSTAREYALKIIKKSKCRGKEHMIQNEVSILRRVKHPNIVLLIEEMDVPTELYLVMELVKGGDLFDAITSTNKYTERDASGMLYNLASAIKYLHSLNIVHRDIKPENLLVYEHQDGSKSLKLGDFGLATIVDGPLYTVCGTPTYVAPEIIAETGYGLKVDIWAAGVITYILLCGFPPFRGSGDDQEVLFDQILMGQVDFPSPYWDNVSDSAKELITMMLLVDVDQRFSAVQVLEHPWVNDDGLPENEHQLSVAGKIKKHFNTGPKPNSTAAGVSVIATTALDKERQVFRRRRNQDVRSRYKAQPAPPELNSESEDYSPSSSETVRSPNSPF

DRAK2 = target: T2, DRAK2 (Homo sapiens, UniProt O94768)
T2 construct: gene STK17B
T2 sequence (O94768 1-372): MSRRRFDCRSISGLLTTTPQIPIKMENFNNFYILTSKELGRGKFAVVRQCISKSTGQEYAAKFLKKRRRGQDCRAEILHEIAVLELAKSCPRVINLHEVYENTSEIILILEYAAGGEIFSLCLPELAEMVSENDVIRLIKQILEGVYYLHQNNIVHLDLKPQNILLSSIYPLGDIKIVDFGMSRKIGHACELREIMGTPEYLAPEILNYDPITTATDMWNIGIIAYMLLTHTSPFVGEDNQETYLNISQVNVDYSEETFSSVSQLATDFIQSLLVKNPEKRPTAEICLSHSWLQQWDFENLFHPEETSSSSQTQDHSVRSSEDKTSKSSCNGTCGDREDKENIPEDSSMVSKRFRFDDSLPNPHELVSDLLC

EPHB3 = target: T3, EPHB3 (Homo sapiens, UniProt P54753)
T3 sequence (P54753 1-998): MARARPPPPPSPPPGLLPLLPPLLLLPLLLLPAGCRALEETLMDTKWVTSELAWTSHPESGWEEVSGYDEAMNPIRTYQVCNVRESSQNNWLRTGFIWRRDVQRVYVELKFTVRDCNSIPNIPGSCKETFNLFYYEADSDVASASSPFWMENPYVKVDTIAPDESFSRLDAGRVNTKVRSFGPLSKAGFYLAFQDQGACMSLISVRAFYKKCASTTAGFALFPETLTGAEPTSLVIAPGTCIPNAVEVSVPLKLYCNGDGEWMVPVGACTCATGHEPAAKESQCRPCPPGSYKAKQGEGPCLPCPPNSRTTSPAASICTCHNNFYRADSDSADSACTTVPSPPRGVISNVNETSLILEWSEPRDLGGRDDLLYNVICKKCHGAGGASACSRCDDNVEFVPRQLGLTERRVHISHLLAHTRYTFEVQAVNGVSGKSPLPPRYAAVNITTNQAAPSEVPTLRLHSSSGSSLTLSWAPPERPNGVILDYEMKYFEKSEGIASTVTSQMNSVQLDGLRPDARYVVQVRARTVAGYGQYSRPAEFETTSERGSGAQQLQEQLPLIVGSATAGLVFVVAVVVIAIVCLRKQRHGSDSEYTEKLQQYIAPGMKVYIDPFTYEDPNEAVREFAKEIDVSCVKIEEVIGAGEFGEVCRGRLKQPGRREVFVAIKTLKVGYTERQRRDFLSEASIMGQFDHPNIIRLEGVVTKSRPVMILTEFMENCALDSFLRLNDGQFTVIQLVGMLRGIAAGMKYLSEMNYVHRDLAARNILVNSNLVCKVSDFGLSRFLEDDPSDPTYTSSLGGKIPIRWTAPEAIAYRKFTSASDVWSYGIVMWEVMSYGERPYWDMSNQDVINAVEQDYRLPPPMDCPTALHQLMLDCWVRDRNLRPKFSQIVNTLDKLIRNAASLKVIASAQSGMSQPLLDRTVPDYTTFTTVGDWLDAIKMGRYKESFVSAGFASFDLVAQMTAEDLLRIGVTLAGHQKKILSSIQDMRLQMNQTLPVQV

FECH = target: T4, FECH (Homo sapiens, UniProt P22830)
T4 sequence (P22830 1-423): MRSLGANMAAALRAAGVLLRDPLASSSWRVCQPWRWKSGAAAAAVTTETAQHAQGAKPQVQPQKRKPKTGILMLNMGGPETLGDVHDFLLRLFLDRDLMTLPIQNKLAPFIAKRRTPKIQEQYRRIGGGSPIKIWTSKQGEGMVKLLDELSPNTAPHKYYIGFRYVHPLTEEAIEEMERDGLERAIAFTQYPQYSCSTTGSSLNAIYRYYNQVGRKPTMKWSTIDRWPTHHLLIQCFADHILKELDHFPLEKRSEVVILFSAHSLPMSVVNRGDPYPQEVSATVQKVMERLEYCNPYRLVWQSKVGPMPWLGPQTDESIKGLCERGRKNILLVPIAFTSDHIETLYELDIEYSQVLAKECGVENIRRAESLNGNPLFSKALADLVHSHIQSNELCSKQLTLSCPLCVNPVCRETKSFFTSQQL

MARK3 = MARK3 (Homo sapiens, UniProt P27448)
MARK3, sequence (P27448 whole entry): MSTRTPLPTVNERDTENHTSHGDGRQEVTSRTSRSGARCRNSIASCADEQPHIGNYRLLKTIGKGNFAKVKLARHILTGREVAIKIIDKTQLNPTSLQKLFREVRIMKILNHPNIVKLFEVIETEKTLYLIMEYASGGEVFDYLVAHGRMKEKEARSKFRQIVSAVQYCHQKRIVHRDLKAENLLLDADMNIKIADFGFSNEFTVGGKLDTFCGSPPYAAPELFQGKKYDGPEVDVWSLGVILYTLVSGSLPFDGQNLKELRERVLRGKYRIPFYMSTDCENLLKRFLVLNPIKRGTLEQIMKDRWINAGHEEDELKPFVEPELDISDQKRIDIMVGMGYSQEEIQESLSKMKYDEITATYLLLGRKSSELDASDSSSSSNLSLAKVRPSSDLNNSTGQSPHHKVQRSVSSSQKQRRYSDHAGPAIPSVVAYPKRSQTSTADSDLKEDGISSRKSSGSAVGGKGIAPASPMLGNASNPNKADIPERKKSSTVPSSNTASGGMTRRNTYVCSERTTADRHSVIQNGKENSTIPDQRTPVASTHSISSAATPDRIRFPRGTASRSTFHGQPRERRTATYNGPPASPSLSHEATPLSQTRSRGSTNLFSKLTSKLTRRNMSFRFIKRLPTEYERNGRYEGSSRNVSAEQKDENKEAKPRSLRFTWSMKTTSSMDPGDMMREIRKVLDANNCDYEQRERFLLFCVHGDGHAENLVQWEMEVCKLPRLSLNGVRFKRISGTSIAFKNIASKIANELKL

OSR1 = target: T5, OSR1 (Homo sapiens, UniProt O95747)
T5 construct: gene OXSR1
T5 sequence (O95747 whole entry): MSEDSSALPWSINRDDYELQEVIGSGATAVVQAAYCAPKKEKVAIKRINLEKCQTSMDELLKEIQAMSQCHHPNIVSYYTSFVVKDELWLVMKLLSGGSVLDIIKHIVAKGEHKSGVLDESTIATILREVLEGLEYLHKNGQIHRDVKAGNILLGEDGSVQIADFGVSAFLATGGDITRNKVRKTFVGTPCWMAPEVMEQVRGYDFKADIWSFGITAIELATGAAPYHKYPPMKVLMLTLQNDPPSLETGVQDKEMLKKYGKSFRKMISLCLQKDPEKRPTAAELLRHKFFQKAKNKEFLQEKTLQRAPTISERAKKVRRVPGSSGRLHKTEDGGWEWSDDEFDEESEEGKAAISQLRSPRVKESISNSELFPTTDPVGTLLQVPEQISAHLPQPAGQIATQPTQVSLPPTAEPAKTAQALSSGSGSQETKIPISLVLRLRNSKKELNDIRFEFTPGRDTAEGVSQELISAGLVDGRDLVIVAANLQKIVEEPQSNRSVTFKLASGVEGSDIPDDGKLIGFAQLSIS

- ΔTm at 10 µM (DCAMKL1; read-out: 7c): 3 °C
- ΔTm at 10 µM (DRAK2; read-out: 7c): 0 °C
- ΔTm at 10 µM (EPHB3; read-out: 7c): -1 °C
- ΔTm at 10 µM (FECH; read-out: 7c): 0 °C
- ΔTm at 10 µM (MARK3; read-out: 7c): -1 °C
- ΔTm at 10 µM (OSR1; read-out: 7c): 0 °C
Structure (SMILES): COc1ccc(OC(C)C)cc1Nc1cncc(-c2ccc(C(=O)O)cc2)n1 [7c]

- ΔTm at 10 µM (DCAMKL1; read-out: 6c): 3 °C
- ΔTm at 10 µM (DRAK2; read-out: 6c): 2 °C
- ΔTm at 10 µM (EPHB3; read-out: 6c): 1 °C
- ΔTm at 10 µM (FECH; read-out: 6c): -3 °C
- ΔTm at 10 µM (MARK3; read-out: 6c): -1 °C
- ΔTm at 10 µM (OSR1; read-out: 6c): -2 °C
Structure (SMILES): CC(C)Oc1ccc2ccn(-c3cncc(-c4ccc(C(=O)O)cc4)n3)c2c1 [6c]

- ΔTm at 10 µM (DCAMKL1; read-out: 2): 4 °C
- ΔTm at 10 µM (DRAK2; read-out: 2): 3 °C
- ΔTm at 10 µM (EPHB3; read-out: 2): 0 °C
- ΔTm at 10 µM (FECH; read-out: 2): 0 °C
- ΔTm at 10 µM (MARK3; read-out: 2): 0 °C
- ΔTm at 10 µM (OSR1; read-out: 2): -1 °C
Structure (SMILES): CC(C)Nc1ccc2cnn(-c3cncc(-c4ccc(C(=O)O)cc4)n3)c2c1 [compound 2, 2]
